In patent US20150258059A1, “ANTIMICROBIAL AND RADIOPROTECTIVE COMPOUNDS” (BioDiem, Ltd, priority 2001, published 2015):
Values after ≈ are worked out from the molar mass of the structure shown. Where two headings read alike, the source gives them in different places.

Experiments:
[1] = system: Conditional pathogenic enterobacteria gram-negative aerobic bacilli; type: cell-based; note: key: + sensitive strains; + moderately sensitive strains; − stable strains
[2] = system: Pseudomonas aeruginosa B-601; test: Sensitivity of strains: suppression of growth; type: cell-based; details: Compound (1) 1.0%; antibiotics disc method
Escherichia coli M-17 = test: Sensitivity of strains: suppression of growth; type: cell-based; details: Compound (1) 1.0%; antibiotics disc method
Escherichia coli B-683 = test: Sensitivity of strains: suppression of growth; type: cell-based; details: Compound (1) 1.0%; antibiotics disc method
Escherichia coli B-65 = test: Sensitivity of strains: suppression of growth; type: cell-based; details: Compound (1) 1.0%; antibiotics disc method
[3] = system: Enterobacter aerogenes B-679; test: Sensitivity of strains: suppression of growth; type: cell-based; details: Compound (1) 1.0%; antibiotics disc method
[4] = system: Enterobacter aerogenes B-687; test: Sensitivity of strains: suppression of growth; type: cell-based; details: Compound (1) 1.0%; antibiotics disc method
[5] = system: Citrobacter diversus B-678; test: Sensitivity of strains: suppression of growth; type: cell-based; details: Compound (1) 1.0%; antibiotics disc method
[6] = system: Shigella flexneri M-2A6907; test: Sensitivity of strains: suppression of growth; type: cell-based; details: Compound (1) 1.0%; antibiotics disc method
Shigella sonnei B-720 = test: Sensitivity of strains: suppression of growth; type: cell-based; details: Compound (1) 1.0%; antibiotics disc method
[7] = system: Salmonella typhimurium M-727; test: Sensitivity of strains: suppression of growth; type: cell-based; details: Compound (1) 1.0%; antibiotics disc method
[8] = system: Salmonella paratyphi M-16469; test: Sensitivity of strains: suppression of growth; type: cell-based; details: Compound (1) 1.0%; antibiotics disc method
Acinetobacter B-681 = test: Sensitivity of strains: suppression of growth; type: cell-based; details: Compound (1) 1.0%; antibiotics disc method
Acinetobacter B-676 = test: Sensitivity of strains: suppression of growth; type: cell-based; details: Compound (1) 1.0%; antibiotics disc method
Acinetobacter B-677 = test: Sensitivity of strains: suppression of growth; type: cell-based; details: Compound (1) 1.0%; antibiotics disc method
Alkaligenes sp. B-689 = test: Sensitivity of strains: suppression of growth; type: cell-based; details: Compound (1) 1.0%; antibiotics disc method
Alkaligenes sp. B-667 = test: Sensitivity of strains: suppression of growth; type: cell-based; details: Compound (1) 1.0%; antibiotics disc method
[9] = system: Yersinia pseudotuberculosis; type: cell-based; details: Compound (1) 1.0%; antibiotics disc method
[10] = system: Klebsiella pneumoniae M-A21; test: Sensitivity of strains: suppression of growth; type: cell-based; details: Compound (1) 1.0%; antibiotics disc method
[11] = system: Klebsiella pneumoniae M-248; test: Sensitivity of strains: suppression of growth; type: cell-based; details: Compound (1) 1.0%; antibiotics disc method
[12] = system: Corynebacterium diphtheriae B-670; test: Sensitivity of strains: suppression of growth; type: cell-based; details: Compound (1) 1.0%; antibiotics disc method
Bacillus sp. B-575 = test: Sensitivity of strains: suppression of growth; type: cell-based; note: key: + sensitive strains; + moderately sensitive strains; − stable strains
[13] = system: Neisseria meningitidis M-6231; test: Sensitivity of strains: suppression of growth; type: cell-based; details: Compound (1) 1.0%; antibiotics disc method
[14] = system: Neisseria meningitidis M-A72; test: Sensitivity of strains: suppression of growth; type: cell-based; details: Compound (1) 1.0%; antibiotics disc method
[15] = system: Staphylococcus aureus M-12159; test: Sensitivity of strains: suppression of growth; type: cell-based; details: Compound (1) 1.0%; antibiotics disc method
[16] = system: Staphylococcus aureus M-209; test: Sensitivity of strains: suppression of growth; type: cell-based; details: Compound (1) 1.0%; antibiotics disc method
[17] = system: Staphylococcus aureus B-685; test: Sensitivity of strains: suppression of growth; type: cell-based; details: Compound (1) 1.0%; antibiotics disc method
[18] = system: Staphylococcus aureus B-674; test: Sensitivity of strains: suppression of growth; type: cell-based; details: Compound (1) 1.0%; antibiotics disc method
[19] = system: Staphylococci epidermidis D-513; test: Sensitivity of strains: suppression of growth; type: cell-based; details: Compound (1) 1.0%; antibiotics disc method
[20] = system: Staphylococcus epidermidis BK-30; test: Sensitivity of strains: suppression of growth; type: cell-based; details: Compound (1) 1.0%; antibiotics disc method
[21] = system: γ-hemolytic streptococcus B-672; test: Sensitivity of strains: suppression of growth; type: cell-based; details: Compound (1) 1.0%; antibiotics disc method
[22] = system: β-hemolytic streptococcus B-624; test: Sensitivity of strains: suppression of growth; type: cell-based; details: Compound (1) 1.0%; antibiotics disc method
[23] = system: Staphylococcus aureus ATCC 29213; test: NCCLS broth microdilution MIC/MBC; type: cell-based; details: for MIC: Staphylococcus aureus, ATCC29213
Proteus vulgaris RMIT = test: NCCLS broth microdilution MIC/MBC; type: cell-based; details: for MIC: Proteus vulgaris
[24] = system: Escherichia coli ATCC 25922; test: NCCLS broth microdilution MIC/MBC; type: cell-based; details: for MIC: Escherichia coli, ATCC25922
[25] = system: Pseudomonas aeruginosa ATCC 27853; test: NCCLS broth microdilution MIC/MBC; type: cell-based; details: for MIC: Pseudomonas aeruginosa, ATCC27853
Serratia marcescens RMIT = test: NCCLS broth microdilution MIC/MBC; type: cell-based; details: for MIC: Serratia marcescens
Mycobact tub. H.37RV = test: Anti-TB effect, serial double dilution in liquid medium; type: cell-based, M tuberculosis; details: 10-14 days incubation at 37° C.; read-out: Minimal Inhibitory Concentration
[26] = Table 9, 35° C., 24 hours, read-out: MIC
[27] = Table 17, 2 or 3 replicates, read-out: MIC

Molecule | Suppression of Growth (+/−) [2] | Suppression of Growth (+/−) (Escherichia coli M-17) | Suppression of Growth (+/−) (Escherichia coli B-683) | Suppression of Growth (+/−) (Escherichia coli B-65) | Suppression of Growth (+/−) [3] | Suppression of Growth (+/−) [4] | Suppression of Growth (+/−) [5] | Suppression of Growth (+/−) [6] | Suppression of Growth (+/−) (Shigella sonnei B-720) | Suppression of Growth (+/−) [7] | Suppression of Growth (+/−) [8] | Suppression of Growth (+/−) (Acinetobacter B-681) | Suppression of Growth (+/−) (Acinetobacter B-676) | Suppression of Growth (+/−) (Acinetobacter B-677) | Suppression of Growth (+/−) (Alkaligenes sp. B-689) | Suppression of Growth (+/−) (Alkaligenes sp. B-667) | Suppression of Growth (+/−) [9] | Suppression of Growth (+/−) [10] | Suppression of Growth (+/−) [11] | Suppression of Growth (+/−) [12] | also measured
CCC[C@@H]1C[C@@H](C(=O)N[C@@H]([C@H]2O[C@H](SC)[C@H](O)[C@@H](O)[C@H]2O)[C@@H](C)O)N(C)C1 [Antibiotic 6, lincomycin] | − | − | − | + | − | − | − | − | − | − | − | − | − | − | − | − | − | − | − | − | Suppression of Growth (+/−) [1]: −; Suppression of Growth (+/−) (Bacillus sp. B-575; Compound (1) 1.0%, antibiotics disc method): +; Suppression of Growth (+/−) [13]: −; Suppression of Growth (+/−) [14]: −; Suppression of Growth (+/−) [15]: −; Suppression of Growth (+/−) [16]: −; Suppression of Growth (+/−) [17]: −; Suppression of Growth (+/−) [18]: −; Suppression of Growth (+/−) [19]: +; Suppression of Growth (+/−) [20]: −; Suppression of Growth (+/−) [21]: −; Suppression of Growth (+/−) [22]: −
Cc1onc(-c2ccccc2)c1C(=O)N[C@@H]1C(=O)N2[C@@H]1SC(C)(C)[C@@H]2C(=O)O [Antibiotic 8, oxacillin] | − | − | − | − | − | − | − | − | − | − | − | − | − | − | − | − | − | − | − | − | Suppression of Growth (+/−) (Bacillus sp. B-575): −; Suppression of Growth (+/−) [13]: −; Suppression of Growth (+/−) [14]: −; Suppression of Growth (+/−) [15]: +; Suppression of Growth (+/−) [16]: −; Suppression of Growth (+/−) [17]: +; Suppression of Growth (+/−) [18]: −; Suppression of Growth (+/−) [19]: +; Suppression of Growth (+/−) [20]: +; Suppression of Growth (+/−) [21]: −; Suppression of Growth (+/−) [22]: −
CC[C@H]1OC(=O)[C@H](C)[C@@H](O[C@H]2C[C@@](C)(OC)[C@@H](O)[C@H](C)O2)[C@H](C)[C@@H](O[C@@H]2O[C@H](C)C[C@H](N(C)C)[C@H]2O)[C@](C)(O)C[C@@H](C)C(=O)[C@H](C)[C@@H](O)[C@]1(C)O [Antibiotic 14, erythromycin] | + | + | + | + | − | − | − | − | − | − | − | − | − | − | − | − | − | − | − | + | Suppression of Growth (+/−) [1]: −; Suppression of Growth (+/−) [13]: −; Suppression of Growth (+/−) [14]: −; Suppression of Growth (+/−) [15]: −; Suppression of Growth (+/−) [16]: −; Suppression of Growth (+/−) [17]: −; Suppression of Growth (+/−) [18]: +; Suppression of Growth (+/−) [19]: −; Suppression of Growth (+/−) [20]: −; Suppression of Growth (+/−) [21]: −; Suppression of Growth (+/−) [22]: −
CCCCCCCCCCCCCCCC[N+](C)(C)C.[Br-] [CTAB, cetyl trimethyl ammonium bromide] |  |  |  |  |  |  |  |  |  |  |  |  |  |  |  |  |  |  |  |  | MIC [23]: 16 µg/mL; MMC ([23]; Table 17, 2 or 3 replicates): 32 µg/mL; MIC (Proteus vulgaris RMIT): 128 µg/mL; MMC (Proteus vulgaris RMIT; Table 17, 2 or 3 replicates): 256 µg/mL; MIC [24]: 16 µg/mL; MMC ([24]; Table 17, 2 or 3 replicates): 16 µg/mL; MIC [25]: 512 µg/mL; MMC ([25]; Table 17, 2 or 3 replicates): >512 µg/mL; MIC (Serratia marcescens RMIT): 128 µg/mL; MMC (Serratia marcescens RMIT; Table 17, 2 or 3 replicates): 128 µg/mL
[H]/N=C(\N/C(=N/[H])NCCCCCCNC(=N)NC(=N)Nc1ccc(Cl)cc1)Nc1ccc(Cl)cc1 [Chlorhexidine] |  |  |  |  |  |  |  |  |  |  |  |  |  |  |  |  |  |  |  |  | MIC [23, 26]: 2 µg/mL (≈ 3.96 µM); MIC [23, 27]: 2 µg/mL (≈ 3.96 µM); MMC ([23]; Table 9, 35° C., 24 hours): 8 µg/mL; MMC ([23]; Table 17, 2 or 3 replicates): 8 µg/mL; MIC (Proteus vulgaris RMIT; [26]): 6 µg/mL (≈ 11.9 µM); MIC (Proteus vulgaris RMIT; [27]): 6 µg/mL (≈ 11.9 µM); MMC (Proteus vulgaris RMIT; Table 9, 35° C., 24 hours): 128 µg/mL; MMC (Proteus vulgaris RMIT; Table 17, 2 or 3 replicates): 128 µg/mL; MIC [24, 26]: 2 µg/mL (≈ 3.96 µM); MIC [24, 27]: 2 µg/mL (≈ 3.96 µM); MMC ([24]; Table 9, 35° C., 24 hours): 4 µg/mL; MMC ([24]; Table 17, 2 or 3 replicates): 4 µg/mL; MIC [25, 26]: 32 µg/mL (≈ 63.3 µM); MIC [25, 27]: 32 µg/mL (≈ 63.3 µM); MMC ([25]; Table 9, 35° C., 24 hours): 64 µg/mL; MMC ([25]; Table 17, 2 or 3 replicates): 64 µg/mL; MIC (Serratia marcescens RMIT; [26]): 16 µg/mL (≈ 31.7 µM); MIC (Serratia marcescens RMIT; [27]): 16 µg/mL (≈ 31.7 µM); MMC (Serratia marcescens RMIT; Table 9, 35° C., 24 hours): 32 µg/mL; MMC (Serratia marcescens RMIT; Table 17, 2 or 3 replicates): 32 µg/mL
CC[C@@H](CO)NCCN[C@@H](CC)CO [Ethambutol] |  |  |  |  |  |  |  |  |  |  |  |  |  |  |  |  |  |  |  |  | MIC (Mycobact tub. H.37RV): 1 to 2.5 µg/mL (≈ 4.89 to 12.2 µM)
NNC(=O)c1ccncc1 [Isoniazid] |  |  |  |  |  |  |  |  |  |  |  |  |  |  |  |  |  |  |  |  | MIC (Mycobact tub. H.37RV): 0.02 to 0.1 µg/mL (≈ 0.146 to 0.729 µM)
gentamycin [Antibiotic 3] | + | + | + | + | − | − | + | + | − | − | − | − | − | − | + | − | − | − | − | + | Suppression of Growth (+/−) [1]: −; Suppression of Growth (+/−) [13]: −; Suppression of Growth (+/−) [14]: −; Suppression of Growth (+/−) [15]: +; Suppression of Growth (+/−) [16]: +; Suppression of Growth (+/−) [17]: +; Suppression of Growth (+/−) [18]: +; Suppression of Growth (+/−) [19]: +; Suppression of Growth (+/−) [20]: −; Suppression of Growth (+/−) [21]: −; Suppression of Growth (+/−) [22]: −
